This passage reports ΔTm and IC50 results from article PMC10427684, “Diversity-oriented synthesis encoded by deoxyoligonucleotides” (Nature Communications, 2023).

As a reminder, the IC50 is the midpoint of a concentration-inhibition curve. A low value points to higher potency.

In the first assay the target is T1, glutathione S-transferase (GST), His-tagged (Schistosoma japonicum, UniProt P08515).
T1 construct: His-tagged GST (Abcam ab89494); also the GST portion of N-His-GST-tagged USP7 (Lys208-Glu560)
T1 sequence (P08515 2-218): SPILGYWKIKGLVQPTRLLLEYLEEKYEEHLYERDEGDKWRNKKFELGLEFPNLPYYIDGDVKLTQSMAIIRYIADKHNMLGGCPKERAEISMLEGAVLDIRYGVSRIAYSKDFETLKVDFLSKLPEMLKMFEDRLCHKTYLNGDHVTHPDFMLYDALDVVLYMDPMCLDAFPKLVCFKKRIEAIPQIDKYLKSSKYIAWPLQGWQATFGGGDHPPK
The experiment in a line: DSF with isolated His-tagged GST (dose-dependent thermal shift), confirmed by SPR. Type of assay: binding. As to conditions: read-out: delta_Tm.
As for `C=CCNc1ncc(C(=O)N2CC[C@H](c3cccc(-c4cc(F)cc(OCC(=O)O)c4)c3)[C@@H]2C(=O)NC)s1` [compound 3, 3], the ΔTm at 100 µM amounted to 3.3 °C.

Another assay concerns the target T2, Carbonic anhydrase II (CAII), BioVision kit #K473-100 (Homo sapiens, UniProt P00918).
T2 construct: gene CA2; kit enzyme
Kind of assay: biochemical. More on the design: CAII esterase activity inhibition kit, absorbance at 405 nm, dose-response.
Details: not given
As for the experimental part: Carbonic anhydrase II (CAII) inhibition assays were performed using a commercially available kit (BioVision, #K473-100), following the manufacturer’s protocol. For each assayed DOSEDO compound, 11 concentrations (half-log dilutions from 10 µM to 100 pM) were tested, with three technical replicates performed on each of two separate 384-well µClear® medium-binding, flat-bottom polystyrene microplates (Greiner Bio-One, #82051-294) (n = 6 for each compound concentration); for 53 only, six technical replicates (n = 6) were performed on the same plate for each compound concentration. Each reaction well contained 3 µL of compound (prepared in 10% DMSO, 90% kit buffer), 25.5 µL of enzyme/buffer mix (1.4 µL enzyme, 24.1 µL kit buffer), and 1.5 µL of substrate, for a total volume of 30 µL. Absorbance at 405 nm was read on a Molecular Devices SpectraMax i3x. In addition to the experimental conditions, a DMSO control and a no-enzyme control were each performed with three technical replicates on each plate, except for the experiment with 53, where six technical replicates for each control were performed on the same plate. The average change in absorbance for the no-enzyme control was subtracted from the change in absorbance over the same time interval for each experimental condition and the DMSO control on the same plate. For each concentration of each compound, relative activity was calculated separately for each replicate based on the average change in absorbance for the DMSO control on the same plate. Dose-response curves were fitted and IC50 values and 95% confidence intervals were calculated using GraphPad Prism v9.2.0. Curves were fitted using GraphPad Prism’s log(inhibitor) vs. response-variable slope nonlinear regression equation, with the top asymptote constrained to 100. Outliers were detected and removed via GraphPad Prism’s ROUT method, with a Q-value of 1%. Error bars (only shown if greater than the height of the symbol) represent 95% confidence intervals (Supplementary Fig. 22).
Molecule `CNC(=O)[C@H]1C[C@@H](Oc2cccc(C3=CCNCC3)c2)CN1S(=O)(=O)c1ccc(S(N)(=O)=O)cc1` [compound 45, (2R,4R)-N-Methyl-1-((4-sulfamoylphenyl)sulfonyl)-4-(3-(1,2,3,6-tetrahydropyridin-4-yl)phenoxy)pyrrolidine-2-carboxamide] showed an IC50 of 26 nM. On the same count and under the same terms, the result for `CC(=O)N1CC2(CN(Cc3ccc(S(N)(=O)=O)o3)C[C@@H]2c2ccc(-c3ccc(F)c(CN(C)C)c3)cc2)C1` [compound 46, (R)-5-((2-Acetyl-8-(3'-((dimethylamino)methyl)-4'-fluoro-[1,1'-biphenyl]-4-yl)-2,6-diazaspiro[3.4]octan-6-yl)methyl)furan-2-sulfonamide] reads 279 nM.

Molecule `CNC(=O)[C@H]1C[C@H](Oc2cccc(-c3ccc(S(N)(=O)=O)cc3)c2)CN1Cc1cn2c(n1)CCC2` [compound 52, (2R,4S)-1-((6,7-Dihydro-5H-pyrrolo[1,2-a]imidazol-2-yl)methyl)-N-methyl-4-((4'-sulfamoyl-[1,1'-biphenyl]-3-yl)oxy)pyrrolidine-2-carboxamide] had an IC50 of 64 nM. `CC(=O)N1C[C@H](c2ccc(-c3cccc(S(N)(=O)=O)c3)cc2)C2(C1)CN(C(=O)c1nc(C)n3c1CCCC3)C2` [compound 53, (R)-4'-(6-Acetyl-2-(3-methyl-5,6,7,8-tetrahydroimidazo[1,5-a]pyridine-1-carbonyl)-2,6-diazaspiro[3.4]octan-8-yl)-[1,1'-biphenyl]-3-sulfonamide] registered an IC50 greater than 10000 nM. In turn, `CC(=O)N1C[C@@H](c2ccc(-c3ccc(S(N)(=O)=O)cc3)cc2)C2(C1)CN(C(=O)C(C)Oc1cccc(C#N)c1)C2` (stereo partly drawn) [compound 54, 4'-((8S)-6-Acetyl-2-(2-(3-cyanophenoxy)propanoyl)-2,6-diazaspiro[3.4]octan-8-yl)-[1,1'-biphenyl]-4-sulfonamide] registered an IC50 of 34 nM.

The molecule `C[C@H]1CN([C@@H](C)CO)S(=O)(=O)c2ccc(-c3ccc(S(N)(=O)=O)cc3)cc2O[C@H]1CN(C)C(=O)c1cnoc1-c1ccco1` [compound 57, 5-(Furan-2-yl)-N-(((4S,5R)-2-((S)-1-hydroxypropan-2-yl)-4-methyl-1,1-dioxido-8-(4-sulfamoylphenyl)-2,3,4,5-tetrahydrobenzo[b][1,4,5]oxathiazocin-5-yl)methyl)-N-methylisoxazole-4-carboxamide] displayed a half-maximal inhibitory concentration (IC50) of 31 nM. Molecule `C[C@H](CO)N1C[C@H](C)[C@@H](CN(C)C(=O)c2coc(S(C)(=O)=O)c2)Oc2cc(-c3ccc(S(N)(=O)=O)cc3)ccc2S1(=O)=O` [compound 58, N-(((4S,5S)-2-((R)-1-Hydroxypropan-2-yl)-4-methyl-1,1-dioxido-8-(4-sulfamoylphenyl)-2,3,4,5-tetrahydrobenzo[b][1,4,5]oxathiazocin-5-yl)methyl)-N-methyl-5-(methylsulfonyl)furan-3-carboxamide] had an IC50 of 17 nM. The same measure, in the same setting: in the case of `C[C@@H]1CN([C@@H](C)CO)S(=O)(=O)c2ccc(-c3ccc(S(N)(=O)=O)cc3)cc2O[C@H]1CN(C)C(=O)c1cnoc1-c1ccco1` [compound 59, 5-(Furan-2-yl)-N-(((4R,5R)-2-((S)-1-hydroxypropan-2-yl)-4-methyl-1,1-dioxido-8-(4-sulfamoylphenyl)-2,3,4,5-tetrahydrobenzo[b][1,4,5]oxathiazocin-5-yl)methyl)-N-methylisoxazole-4-carboxamide] it was 16 nM.
